Entries after “also recorded” stand apart in the source; their conditions may differ. Read-outs that look alike come from different tables or passages of the source.
Tested on: bleomycin-induced pulmonary fibrosis
Experimental: Bleomycin solution: bleomycin (commercially available from SigmaAldrich) in PBS was used for intra-tracheal bleomycin administration. (0.04 U of bleomycin in 50 μl in PBS/mouse/per inhalation).
13 female mice (commercially available from Charles River Laboratories, BALB/C) were randomly divided into 4 groups, as follows:
Each mouse was anesthetized with 87.5 mg ketamine/kg and 12.5 mg xyline/kg cocktail 0.1 ml/20 g body weight IM. For both lithium and bleomycin intra-tracheal administration, tracheal intubation was performed using with a 23 gauge IV catheter through the mouth, followed by insertion of PE-10 tubing into the trachea. After placement of the PE-10 tubing inside the trachea, the 23 gauge iv catheter was quickly removed. Lithium or bleomycin was instilled through the PE-10 tubing. The instillation volume was 50 μl each administration for each mouse. The procedure time was around 15 minutes per mouse.
For Group 1 (n=1), no treatment was administered and the mouse was sacrificed as control.
The mice was sacrificed at 21 days after first lithium administration. The mice were sacrificed using pentobarbital 200 mg/kg ip. After the mice were sacrificed, the lungs were quickly harvested and perfused with 10% formalin buffer through the trachea. The lung tissue was then fixed in 10% formalin buffer for 3 days.
For Group 3 (n=6), the mice were pre-treated with intra-tracheal lithium instillation (0.15 mM in 50 μl saline) every other day for 3 administrations. 7 days after the final lithium pre-treatment, intra-tracheal bleomycin was instilled (0.04 U in 50 μl saline). The mice in this group were then sacrificed 14 days after bleomycin administration. The mice were sacrificed using pentobarbital 200 mg/kg ip. After the mice were sacrificed, the lungs were quickly harvested and perfused with 10% formalin buffer through the trachea. The lung tissue was then fixed in 10% formalin buffer for 3 days.
For Group 4 (n=5), only intra-tracheal bleomycin was instilled (0.04 U in 50 μl saline). The mice in this group were then sacrificed 14 days after bleomycin administration. The mice were sacrificed using pentobarbital 200 mg/kg ip. After the mice were sacrificed, the lungs were quickly harvested and perfused with 10% formalin buffer through the trachea. The lung tissue was then fixed in 10% formalin buffer for 3 days.
Following the 3 day period, macroscopical examination of the lung tissue was performed by dissection. The lung tissue were cut into 1-2 mm slices and visually inspected for areas of grey-white discoloration. […] The lung slices were then embedded in paraffin and sectioned into 5-μm-thick sections. Hematoxylin and eosin (H&E) and trichrome staining (abcam; ab150686) were performed for tissue samples from each group. The stained slides were then examined under light microscope (Olympus BX51) and photographed (Olympus DP-73 digital camera).
An Ashcroft score was then calculated for each of the group (T Ashcroft at al., Simple method of estimating severity of pulmonary fibrosis on a numerical scale. J Clin Pathol 1988; 41:467-470). The Ashcroft score provides a simple method of estimating severity of pulmonary fibrosis on a numerical scale.

O=C([O-])[O-].[Li+].[Li+] [lithium carbonate]
signs of lung tissue damage, macroscopic and microscopic (H&E, trichrome) (Group 2: lithium inhalation only): did not show any macroscopically or microscopically sign of lung tissue damage | Ashcroft score (Group 2: lithium inhalation only, 0.15 mM lithium carbonate 50 μl intratracheal every other day for 3 administrations, sacrificed at 21 days): 0 | Ashcroft score (Group 3: intra-tracheal lithium 0.15 mM in 50 μl every other day for 3 administrations, bleomycin 0.04 U 7 days after final lithium, sacrificed 14 days after bleomycin): 0 | signs of lung tissue damage, macroscopic and microscopic (H&E, trichrome) (Group 3: lithium pre-treatment followed by bleomycin): did not reveal any signs macroscopically or microscopically of lung tissue damage | pulmonary fibrosis development induced by bleomycin (lithium pre-treatment by inhalation, mice): completely abolishes

bleomycin
macroscopic examination of lung sections (grey-white discoloration) (Group 4: bleomycin alone): only areas of such discoloration were found in the lung tissue of Group 4 mice; also recorded: multiple areas of grey-white discoloration mostly in peri-pleural areas | microscopic examination of discoloured lung areas (Group 4: bleomycin alone): profound fibrotic changes | Ashcroft score (Group 4: intra-tracheal bleomycin alone 0.04 U in 50 μl, sacrificed 14 days after bleomycin): 4.03

— patent publication US10046007B2, “Compositions and methods for treatment of short telomere disorders” (PRESCIENT PHARMA LLC, priority 2015, dated 2018)
